This test addresses T1, human JAK2 (Homo sapiens, UniProt O60674).
T1 construct: JAK2 (a.a. 828-1132); His tag (N); made in house; host or cells: insect cells (baculovirus)
In words: In vitro JAK kinase assay (HTRF, phosphorylation of biotinylated peptide). Format: biochemical. The following applies: catalytic domain a.a. 828-1132, 30 μM ATP, 500 nM peptide, room temperature 1 hr; read-out: JAK-2 IC50. In outline: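 IC50 from HTRF detection (Eu-Py20 antibody, SA-APC) of biotinylated-peptide phosphorylation (500 nM), run 1 h at RT. Enzyme: N-His human JAK2 kinase domain a.a. 828-1132 from insect cells; ATP 30 μM; buffer 50 mM Tris pH 7.8 with NaCl, DTT, BSA.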

IC50 data for 27 compounds are collected here from patent US8309718B2, “4-pyrazolyl-N-arylpyrimidin-2-amines and 4-pyrazolyl-N-heteroarylpyrimidin-2-amines as janus kinase inhibitors” (Incyte Corporation, priority 2007, dated 2012).

A value given as a limit tells only on which side of the number the result lay.

T1 sequence (O60674 828-1132): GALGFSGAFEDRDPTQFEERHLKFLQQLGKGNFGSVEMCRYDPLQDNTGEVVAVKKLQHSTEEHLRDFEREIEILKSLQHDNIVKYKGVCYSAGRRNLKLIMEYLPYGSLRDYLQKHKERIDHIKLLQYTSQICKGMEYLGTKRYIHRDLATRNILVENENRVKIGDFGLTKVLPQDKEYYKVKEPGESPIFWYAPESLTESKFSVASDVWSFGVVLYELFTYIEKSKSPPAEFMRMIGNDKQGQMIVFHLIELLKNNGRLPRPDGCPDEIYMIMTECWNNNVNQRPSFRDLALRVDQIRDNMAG

Take `N#CCC(C1CCCC1)n1cc(-c2ccnc(Nc3cccc(C(=O)N4CCC(O)CC4)c3)n2)cn1` (racemic) [Example 111, 3-cyclopentyl-3-(4-(2-(3-(4-hydroxypiperidine-1-carbonyl)phenylamino)pyrimidin-4-yl)-1H-pyrazol-1-yl)propanenitrile]: the IC50 was less than 100 nM.

As to `CCNCC(=O)Nc1cccc(Nc2nccc(-c3cnn(C(CC#N)C4CCCC4)c3)n2)c1` (racemic) [Example 243, N-(3-(4-(1-(2-cyano-1-cyclopentylethyl)-1H-pyrazol-4-yl)pyrimidin-2-ylamino)phenyl)-2-(ethylamino)acetamide], the 50% inhibitory concentration (IC50) was less than 100 nM.

As for `N#CCC(C1CC1)n1cc(-c2ccnc(Nc3cccc(-c4cnco4)c3)n2)cn1` (racemic) [Example 181, 3-cyclopropyl-3-(4-(2-(3-(oxazol-5-yl)phenylamino)pyrimidin-4-yl)-1H-pyrazol-1-yl)propanenitrile], the IC50 was less than 100 nM.

As to `N#CCC(C1CCCC1)n1cc(-c2ccnc(Nc3ccc(C(=O)N4CC[C@@H](O)C4)cc3)n2)cn1` (mixture of isomers) [Example 127, 3-cyclopentyl-3-(4-(2-(4-((R)-3-hydroxypyrrolidine-1-carbonyl)phenylamino)pyrimidin-4-yl)-1H-pyrazol-1-yl)propanenitrile], the half-inhibitory concentration (IC50) was less than 100 nM.

Turning to `CCOC(=O)N1CCC(NC(=O)c2ccc(Nc3nccc(-c4cnn(C(CC#N)C5CCCC5)c4)n3)cc2)CC1` (racemic) [Example 231, Ethyl 4-(4-(4-(1-(2-cyano-1-cyclopentylethyl)-1H-pyrazol-4-yl)pyrimidin-2-ylamino)benzamido)piperidine-1-carboxylate], the IC50 is less than 100 nM.

Turning to `N#CCC1(n2cc(-c3ccnc(Nc4ccc(-n5cccn5)cc4)n3)cn2)CCN(C(=O)c2ccno2)CC1` (racemic) [Example 12, 2-(4-(4-(2-(4-(1H-pyrazol-1-yl)phenylamino)pyrimidin-4-yl)-1H-pyrazol-1-yl)-1-(isoxazole-5-carbonyl)piperidin-4-yl)acetonitrile], the IC50 was less than 100 nM.

`N#CCC(C1CC1)n1cc(-c2ccnc(Nc3ccc(C(=O)N4[C@@H]5CC[C@H]4C[C@@H](O)C5)cc3)n2)cn1` (mixture of isomers) [Example 252, 3-cyclopropyl-3-(4-(2-(4-((3-endo)-3-hydroxy-8-azabicyclo[3.2.1]octane-8-carbonyl)phenylamino)pyrimidin-4-yl)-1H-pyrazol-1-yl)propanenitrile]: the IC50 is less than 100 nM.

For the compound `COc1cnc(Nc2ccc(-c3cnco3)cc2)nc1-c1cnn(C(CC#N)C2CCCC2)c1` (racemic) [Example 131, 3-cyclopentyl-3-(4-(5-methoxy-2-(4-(oxazol-5-yl)phenylamino)pyrimidin-4-yl)-1H-pyrazol-1-yl)propanenitrile], the IC50 is less than 100 nM.

Consider `CC(=O)Nc1ccc(Nc2ncc(C)c(-c3cnn(C(CC#N)CC4CCN(S(=O)(=O)c5ccn(C)n5)CC4)c3)n2)cc1` (racemic) [Example 51, N-(4-(4-(1-(1-cyano-3-(1-(1-methyl-1H-pyrazol-3-ylsulfonyl)piperidin-4-yl)propan-2-yl)-1H-pyrazol-4-yl)-5-methylpyrimidin-2-ylamino)phenyl)acetamide], for which the IC50 was less than 100 nM.

In the case of `CCN(CCCO)c1ccc(Nc2ncc(C)c(-c3cnn(C(CC#N)C4CCCC4)c3)n2)cc1` (racemic) [Example 80, 3-cyclopentyl-3-(4-(2-(4-(ethyl(3-hydroxypropyl)amino)phenylamino)-5-methylpyrimidin-4-yl)-1H-pyrazol-1-yl)propanenitrile], the IC50 was less than 100 nM.

Take `N#CCC(C1CCOCC1)n1cc(-c2ccnc(Nc3ccc(C(=O)N4CCC(C#N)CC4)cc3)n2)cn1` (racemic) [Example 314, 1-{4-[(4-{1-[2-cyano-1-(tetrahydro-2H-pyran-4-yl)ethyl]-1H-pyrazol-4-yl}pyrimidin-2-yl)amino]benzoyl}piperidine-4-carbonitrile]: the IC50 is less than 100 nM.

As for `COc1cnc(Nc2ccc(N3CCOCC3=O)cc2)nc1-c1cnn(C(CC#N)C2CCCC2)c1` (racemic) [Example 133, 3-cyclopentyl-3-(4-(5-methoxy-2-(4-(3-oxomorpholino)phenylamino)pyrimidin-4-yl)-1H-pyrazol-1-yl)propanenitrile], the IC50 is less than 100 nM.

Consider `Cc1cc(CNC(=O)c2ccc(Nc3nccc(-c4cnn(C5(CC#N)CC(C#N)C5)c4)n3)cc2)no1` (single isomer, unassigned) [Example 291, 4-(4-(1-(3-cyano-1-(cyanomethyl)cyclobutyl)-1H-pyrazol-4-yl)pyrimidin-2-ylamino)-N-((5-methylisoxazol-3-yl)methyl)benzamide], for which the IC50 was less than 100 nM.

`N#CCC(C1CCCC1)n1cc(-c2ccnc(Nc3ccc(-n4cccn4)cc3)n2)cn1` (racemic) [Example 34, 3-(4-(2-(4-(1H-pyrazol-1-yl)phenylamino)pyrimidin-4-yl)-1H-pyrazol-1-yl)-3-cyclopentylpropanenitrile]: the IC50 is less than 100 nM.

Take `Cc1cnc(Nc2ccc(C(=O)N(C)C)cc2)nc1-c1cnn(C(CC#N)C2CCCC2)c1` (racemic) [Example 77, 4-(4-(1-(2-cyano-1-cyclopentylethyl)-1H-pyrazol-4-yl)-5-methylpyrimidin-2-ylamino)-N,N-dimethylbenzamide]: the IC50 is less than 100 nM.

Take `Cc1cnc(Nc2ccccc2)nc1-c1cnn(C(CC#N)CC2CCN(C(=O)c3ccc(F)cc3F)CC2)c1` (racemic) [Example 66, 4-(1-(2,4-difluorobenzoyl)piperidin-4-yl)-3-(4-(5-methyl-2-(phenylamino)pyrimidin-4-yl)-1H-pyrazol-1-yl)butanenitrile]: the 50% inhibitory concentration (IC50) is less than 100 nM.

Consider `N#CCC(C1CCOCC1)n1cc(-c2ccnc(Nc3ccc(C(=O)N4CC[C@@H](O)C4)cc3)n2)cn1` (mixture of isomers) [Example 315, 3-(4-{2-[(4-{[(3R)-3-hydroxypyrrolidin-1-yl]carbonyl}phenyl)amino]pyrimidin-4-yl}-1H-pyrazol-1-yl)-3-(tetrahydro-2H-pyran-4-yl)propanenitrile], for which the IC50 was less than 100 nM.

Regarding `CCS(=O)(=O)N1CCC(CC(CC#N)n2cc(-c3nc(Nc4ccc(N5CCOCC5)cc4)ncc3C)cn2)CC1` (racemic) [Example 48, 4-(1-(ethylsulfonyl)piperidin-4-yl)-3-(4-(5-methyl-2-(4-morpholinophenylamino)pyrimidin-4-yl)-1H-pyrazol-1-yl)butanenitrile], the IC50 is less than 100 nM.

Turning to `CC(=O)N1CCC(C(CC#N)n2cc(-c3ccnc(Nc4ccc(N5CCOCC5)cc4)n3)cn2)CC1` (racemic) [Example 26, 3-(1-acetylpiperidin-4-yl)-3-(4-(2-(4-morpholinophenylamino)pyrimidin-4-yl)-1H-pyrazol-1-yl)propanenitrile], the IC50 was less than 100 nM.

Consider `Cn1ccc(S(=O)(=O)N2CCC(CC(CC#N)n3cc(-c4ccnc(Nc5ccc(C(N)=O)cc5)n4)cn3)CC2)n1` (racemic) [Example 47, 4-(4-(1-(1-cyano-3-(1-(1-methyl-1H-pyrazol-3-ylsulfonyl)piperidin-4-yl)propan-2-yl)-1H-pyrazol-4-yl)pyrimidin-2-ylamino)benzamide], for which the IC50 is less than 100 nM.

For `CCS(=O)(=O)N1CC(CC#N)(n2cc(-c3ccnc(Nc4ccc(C(=O)N5CCC(OC)CC5)cc4)n3)cn2)C1` [Example 275, (1-(ethylsulfonyl)-3-4-(2-(4-((4-methoxypiperidin-1-yl)carbonyl)phenylamino)pyrimidin-4-yl)-1H-pyrazol-1-ylazetidin-3-yl)acetonitrile], the IC50 is less than 100 nM.

Consider `N#CCC(C1CCCC1)n1cc(-c2ccnc(Nc3ccc(NC(=O)CNCC4CC4)cc3)n2)cn1` (racemic) [Example 210, N-(4-(4-(1-(2-cyano-1-cyclopentylethyl)-1H-pyrazol-4-yl)pyrimidin-2-ylamino)phenyl)-2-(cyclopropylmethylamino)acetamide], for which the IC50 is less than 100 nM.

`COc1cnc(Nc2cccc(C(=O)N3CC[C@H](C#N)C3)c2)nc1-c1cnn(C(CC#N)C2CC2)c1` (mixture of isomers) [Example 327, (3S)-1-[3-({4-[1-(2-cyano-1-cyclopropylethyl)-1H-pyrazol-4-yl]-5-methoxypyrimidin-2-yl}amino)benzoyl]pyrrolidine-3-carbonitrile]: the IC50 is less than 100 nM.

On to `CN(C)C(=O)C1CCN(C(=O)c2ccc(Nc3nccc(-c4cnn(C(CC#N)C5CCCC5)c4)n3)cc2)CC1` (racemic) [Example 234, 1-(4-(4-(1-(2-cyano-1-cyclopentylethyl)-1H-pyrazol-4-yl)pyrimidin-2-ylamino)benzoyl)-N,N-dimethylpiperidine-4-carboxamide], for which the IC50 was less than 100 nM.

In the case of `COc1cnc(Nc2ccc(C(=O)N3CCOCC3)cc2)nc1-c1cnn(C(CC#N)C2CCCC2)c1` (racemic) [Example 302, 3-cyclopentyl-3-(4-(5-methoxy-2-(4-(morpholine-4-carbonyl)phenylamino)pyrimidin-4-yl)-1H-pyrazol-1-yl)propanenitrile], the 50% inhibitory concentration (IC50) was less than 100 nM.

On to `Cc1cc(C(=O)Nc2ccc(Nc3nccc(-c4cnn(C(CC#N)C5CCCC5)c4)n3)cc2)no1` (racemic) [Example 187, N-(4-(4-(1-(2-cyano-1-cyclopentylethyl)-1H-pyrazol-4-yl)pyrimidin-2-ylamino)phenyl)-5-methylisoxazole-3-carboxamide], for which the IC50 is less than 100 nM.

Regarding `CS(=O)(=O)CS(=O)(=O)Nc1ccc(Nc2nccc(-c3cnn(C(CC#N)C4CCCC4)c3)n2)cc1` (racemic) [Example 184, N-(4-(4-(1-(2-cyano-1-cyclopentylethyl)-1H-pyrazol-4-yl)pyrimidin-2-ylamino)phenyl)-1-(methylsulfonyl)methanesulfonamide], the IC50 is less than 100 nM.
